# In EP0182271A2, “Nb-quaternary dibromo derivatives of ajmaline, isoajmaline, sandwicine and isosandwicine, pharmaceutical compositions containing them, intermediates and process for their preparation” (priority 1984, dated 1986):
# Where two headings read alike, the source gives them in different places.
# Tests used:
# [1] = test system: ADP-induzierter Plättchenaggregation in PRP-K; assay: Inhibition of ADP-induced platelet aggregation in platelet-rich rabbit plasma (PRP/K), method of Born; type: cell-based, Kaninchen; details: Oryctolagus cuniculus, 10-6 Mol/l ADP, read-out: % Hemmwirkung gegenüber ADP-induzierter Plättchenaggregation in PRP-K
# Excerpt: 3. Bestimmung der Hemmwirkung auf durch ADP induzierte Blutplättchenaggregation im blutplättchenreichen Kaninchenblutplasma (PRP/K).
# Die in-vitro-Bestimmung der antiaggregatorischen Wirkungen der Substanzen wurde nach der Methode von Born (Nature 194, 927 (1962)), modifiziert für Mikrobestimmungen nach Sim et al (Thromb. Res. 1, 655 (1975)) durchgeführt.
# PRP/K wird durch Zentrifugieren von mit Antikoagulanz versetztem Kaninchenblut auf bekannte Weise erhalten. Als Kontrollwerte für die photometrische Bestimmung der Aggregationshemmung werden die optische Dichte des unbehandelten PRP/K (^ß0 % Aggregation) und von PRP/K, in welchem Blutplättchenaggregation durch Behandlung von 10-^6 Mol/1 ? ADP erzeugt wurde (100 % Aggregation), gemessen.
# Zur Bestimmung der aggregationshemmmenden Wirkungen der Wirkstoffe werden Proben PRP/K mit einer bestimmten Wirkstoffdosis versetzt und dann mit 10-^6 Mol/1 ADP behandelt. Die Verringerung der optischen Dichte gegenüber der des unbehandelten PRP/K wird gemessen und mit der bei der Behandlung von wirkstoffreiem PRP/K mit 10-^6 Mol/l ADP aufgetretenen optischen Dichteverringerung verglichen. Hieraus wird die durch die eingesetzte Wirkstoffdosis entfaltete Hemmwirkung in % Hemmung der in wirkstoffreiem PRP/K verursachten Aggregation berechnet. Die in diesem Test mit Wirkstoffen der Formel I erhaltenen Ergebnisse werden in der nachstehenden Tabelle II wiedergegeben. Die folgenden Tabellen I und II geben nach den vorstehend beschriebenen Testmethoden erhaltene Ergebnisse wieder. Die für die Verbindungen der Formel I angegebenen Beispielsnummern beziehen sich auf die nachstehenden Herstellungsbeispiele.
# [2] = Acute 7-day toxicity in mice after a single p.o. dose; parameters: species or system Maus; details: in vivo, po, mouse (male NMRI), 50 % mortality on day 7, probit analysis, read-out: Toxizität LD50
# Excerpt: (§1) Beschreibung der pharmakologischen Versuchsmethoden: • 1. Bestimmung der akuten 7-Tage-Toxizität in Mausen. Die akute Toxizität der Wirkstoffe wird in männlichen NMRI-Mäusen (Körpergewicht 18-22 g) nach einmaliger p.o.-Applikation bestimmt. Die LD50 wird als die Dosis in uMol/kg definiert, welcher eine 50 % Mortalität der Tiere am 7. Tag nach der Applikation entspricht. Die LD50-Werte werden durch eine Probit-Analyse errechnet. • 2. Bestimmung der Hemmwirkung der Substanzen auf durch Aconitin-Infusion induzierte Herzrhythmusstörungen in Ratten.
# [3] = test system: durch Aconitin-Infusion induzierte Herzrhythmusstörungen; assay: Inhibition of aconitine-infusion-induced cardiac arrhythmias in rats (method of Raschak); type: in vivo, Ratte; details: Rattus norvegicus, po, 3 h
# Excerpt: as §1
# Die Hemmwirkung auf durch Aconitin-Infusion in Ratten verursachte Herzrhythmusstörungcn (Extrasystolen (ES), ventrikuläre Tachykardie (VT) und Kammerflattern (KF)) werden nach der Methode von Raschak (Arzneimittelforsch. 25 (1975), 639-641) bestimmt.
# Männliche Ratten mit einem Körpergewicht von 320-400 g werden durch i.p. Applikation von 1,25 g/kg Urethan narkotisiert. Die Tiere werden auf den Rücken gelegt und ihr Elektrokardiogramm wird während des Versuches alle 30 Sekunden gemessen. Den Tieren wird eine i.v. Aconitin-Infusion mit einer Infusionsgeschwindigkeit von 5 µg/kg/min Aconitin und einem Infusionsvolumen von 0,1 ml/min verabreicht. Drei Stunden vor Beginn der Aconitin-Infusion werden den Tieren die Testsubstanzen p.o. in einer Menge von 2 ml/kg Körpergewicht 2%-iger Tylose-Lösung verabreicht. Einer Kontrollgruppe wird nur die Tylose-Lösung verabreicht. Die Infusionsdauer bis zum Auftreten der verschiedenen Herzrhythmusstörungen wird bestimmt.
# Antiarrhythmisch wirksame Testverbindungen führen zu einer Verzögerung des Auftretens der Aconitin-induzierten Herzrhythmusstörungen in den behandelten Tieren im Vergleich zu den Kontrolltieren. Aus dem Ausmaß der Verlängerung der Aconitininfusionsdauer und somit der Erhöhung der verabreichten Aconitinmenge, bis zu welcher die Tiere gegen die durch Aconitin induzierten Herzrhythmusstörungen geschützt sind, läßt sich auf die Stärke der antiarrhythmischen Wirksamkeit der Testsubstanzen schließen. Als ED150 wird die Dosis der Testsubstanzen bestimmt, bei welcher die jeweiligen Herzrhythmusstörungen erst nach der Verlängerung der Aconitinfusionsdauer auf 150 % auftreten.
# [4] = read-out: Hemmwirkung gegenüber aconotininduzierten Herzrhythmusstörungen ED150 ES
# [5] = read-out: Hemmwirkung gegenüber aconotininduzierten Herzrhythmusstörungen ED150 KF
# [6] = read-out: Hemmwirkung gegenüber aconotininduzierten Herzrhythmusstörungen ED150 VT
Structure (SMILES),inhibition at 100 µg/mL [1],LD50 at 168 h [2],"ED150 [3, 4]","ED150 [3, 5]","ED150 [3, 6]",inhibition at 50 µg/mL ([1]; dose 50 µg/ml)
"CCC1C2CC3C4N(C)c5c(Br)cc(Br)cc5C45CC(C2C5O)[N+]3(C)C1O (stereo not shown) [Beispiel 12, Nb-Methyl-10,12-dibromisosandwicinium-hydrogenfumarat]",83%,2400 µmol/kg,49 µmol/kg,58 µmol/kg,64 µmol/kg,
"CCC1C2CC3C4N(C)c5c(Br)cc(Br)cc5C45CC(C2C5O)[N+]3(CCC(C)C)C1O (stereo not shown) [Beispiel 2, Nb-(3-Methylbutyl)-10,12-dibromajmalinium-chlorid]",,277 µmol/kg,9 µmol/kg,11 µmol/kg,6 µmol/kg,
"CCC1C2CC3C4N(C)c5c(Br)cc(Br)cc5C45CC(C2C5O)[N+]3(CCCN2CCOCC2)C1O (stereo not shown) [Beispiel 8, Nb-(3-Morpholinopropyl)-10,12-dibromisoajmalinium-chlorid]",100%,,,,,
CCC1C2CC3C4N(C)c5c(Br)cc(Br)cc5C45CC(C2C5O)[N+]3(CCN2CCOCC2)C1O (stereo not shown) [Beispiel 62],100%,379 µmol/kg,11 µmol/kg,13 µmol/kg,11 µmol/kg,
CCC1C2CC3C4N(C)c5c(Br)cc(Br)cc5C45CC(C2C5O)[N+]3(C)C1O (stereo not shown) [Beispiel 16],,,,,,81%
